What all share (format): cell-based, HCV
Assay [1] deals with genotype 2a JFH-1 replicon (L31 present in NS5A). As to the kind of experiment: microbe, parasite or virus in culture. To be noted: genotype 2a JFH replicon, read-out: 2a JFH. The protocol:
(§1) Evaluation of cell-based anti-HCV activity: Antiviral potency (EC50) was determined using a Renilla luciferase (RLuc)-based HCV replicon reporter assay. […] To perform the assay for genotype 2a (with M31 present in NS5A) or 2b, NS5A chimeric genotype 2a JFH-1 replicons that encodes a RLuc-Neo reporter and either genotype 2a J6 strain NS5A gene or genotype 2b MD2b-1 strain NS5A gene (both with M31 present) respectively, were either transiently transfected (t) into Huh-Lunet cells or were established as stably replicating replicon cells (s) is provided. Either cells were dispensed into 384-well plates for EC50 assays. To perform the assay for genotype 3 and 4, NS5A chimeric genotype 1b Con1 replicons that encodes a Pi-RLuc reporter and either genotype 3a S52 strain NS5A gene or genotype 4a ED43 strain NS5A gene respectively, were transiently transfected (t) into Huh-Lunet cells, which were subsequently dispensed into 384-well plates. Compounds were dissolved in DMSO at a concentration of 10 mM and diluted in DMSO either manually or using an automated pipeting instrument. Serially 3-fold diluted compounds were either manually mixed with cell culture media and added to the seeded cells or directly added to the cells using an automated instrument. […] 72 hours later, cells were lysed and Renilla luciferase activity quantified as recommended by the manufacturer (Promega-Madison, Wis.). Non-linear regression was performed to calculate EC50 values.
(In general: A replicon is a self-replicating genome or part of one, used to study replication in cells.)

For assay [2], the system named is genotype 1b Con1 replicon. As to the kind of experiment: microbe, parasite or virus in culture. The procedure:
as §1

In assay [3] the test system is genotype 2b MD2b-1 strain NS5A gene (M31 present). As to the kind of experiment: microbe, parasite or virus in culture. The procedure:
as §1

The test system of assay [4] is genotype 4a ED43 strain NS5A gene. As to the kind of experiment: Replicon assay, NS5A chimeric 1b Con1 replicon with 4a NS5A, transiently transfected Huh-Lunet cells. The protocol:
as §1, with “[…],” for “were transiently transfected (t) into Huh-Lunet cells,”

Assay [5] concerns genotype 2a J6 strain NS5A gene (M31 present). As to the kind of experiment: Replicon assay, NS5A chimeric 2a JFH-1 replicon with 2a J6 NS5A, transient (t) or stable (s), Huh-Lunet cells. The protocol:
as §1

Assay [6] has as its system genotype 3a S52 strain NS5A gene. Kind of assay: Replicon assay, NS5A chimeric 1b Con1 replicon with 3a NS5A, transiently transfected Huh-Lunet cells. The conditions noted are these: genotype 3a, read-out: 3a. The protocol:
as §1

The subject of a further assay is Q30R in genotype 1a NS5A. As to the kind of experiment: Antiviral potency against resistance mutant, 1a Pi-Rluc replicon in Huh-7-derived cured-51 cells. The conditions noted are these: genotype 1a Q30R resistance mutant, read-out: 1a Q30R. The procedure:
as §1
To determine the antiviral potency (EC50) against resistance mutants, resistance mutations, including M28T, Q30R, Q30H, L31M, and Y93C in genotype 1a NS5A and Y93H in genotype 1b NS5A, were introduced individually into either 1a Pi-Rluc or 1b Pi-Rluc replicons by site directed mutagenesis. Replicon RNA of each resistant mutant was transiently transfected into Huh-7-derived cured-51 cells and antiviral potency was determined on these transfected cells as described above.

Setting [7] is: genotype 2b, EC50 range class, transiently transfected cells (t), if unavailable stably replicating cells (s), read-out: 2b.
[8] abbreviates: stably replicating cells (s), read-out: 2b (s).
Setting [9] is: transiently transfected cells (t), read-out: 2b (t).
Setting [10] is: genotype 4a, EC50 range class, transiently transfected cells (t), if unavailable stably replicating cells (s), read-out: 4a.
Where [11] appears, read: stably replicating cells (s), read-out: 4a (s).
Setting [12] is: genotype 2a J6, EC50 range class, transiently transfected cells (t), if unavailable stably replicating cells (s), read-out: 2a J6.
The mark [13] stands for this setting: transiently transfected cells (t), read-out: 2a J6 (t).
Where [14] appears, read: transiently transfected cells (t), read-out: 4a (t).
[15] abbreviates: stably replicating cells (s), read-out: 2a J6 (s).
[16] abbreviates: Hepatitis C virus, read-out: 1b (nM).

For eight compounds, EC50 results are on record in patent publication US9221833B2, “Antiviral compounds” (GILEAD PHARMASSET LLC, priority 2011, dated 2015).

Where two headings read alike, the source gives them in different places.

Take `COC[C@H]1C[C@@H](c2ncc(-c3ccc4c(c3)COc3cc5c(ccc6nc([C@@H]7C[C@H]8C[C@H]8N7C(=O)[C@H](NC(=O)OC)c7ccccc7)[nH]c65)cc3-4)[nH]2)N(C(=O)[C@@H](NC(=O)OC)C(C)C)C1` [Example MV]: the EC50 was less than 1 nM in assay [1] (EC50 range class); 0.004 nM in assay [1]; 0.014 nM in assay [2] (read-out: 1b); less than 1 nM in assay [3] (setting [7]); 0.041 nM in assay [3] (setting [8]); 0.034 nM in assay [3] (setting [9]). Moreover, the EC50 in assay [4] (setting [10]) was less than 1 nM; in assay [4] (setting [11]) it was 0.011 nM; in assay [5] (setting [12]), less than 1 nM; in assay [5] (setting [13]) it was 0.047 nM; in assay [6] (EC50 range class), less than 1 nM; in assay [6], 0.011 nM. In addition, the EC50 is less than 1 nM with Q30R in genotype 1a NS5A (EC50 range class) and 0.012 nM in the assay with Q30R in genotype 1a NS5A.
As to “dimethyl (2S,2′S)-1,1′-((2 S,2′S)-2,2′l-pyrrolidin-2-yl)-5H-naphtho[c,g]chromeno[8,9-d]imidazol-9-yl)-1H-imidazol-2-yl)pyrrolidin-1-yl))bis(3-methyl-1-oxobutane-2,1-diyl)dicarbamate [Example MC]”, the EC50 was less than 1 nM in assay [1] (EC50 range class); 0.004 nM in assay [1]; 0.017 nM in assay [2] (read-out: 1b); less than 1 nM in assay [3] (setting [7]); 0.375 nM in assay [3] (setting [8]); 0.162 nM in assay [3] (setting [9]). Moreover, the EC50 in assay [4] (setting [10]) is less than 1 nM; in assay [4] (setting [11]), 0.028 nM; in assay [4] (setting [14]), 0.008 nM; in assay [5] (setting [12]), 1 to 4.99 nM; in assay [5] (setting [15]) it was 3.52 nM; in assay [5] (setting [13]), 1.16 nM. The EC50 is less than 1 nM in assay [6] (EC50 range class), 0.004 nM in assay [6], less than 1 nM in the assay on Q30R in genotype 1a NS5A (EC50 range class) and 0.99 nM in the assay with Q30R in genotype 1a NS5A.
For the compound “Methyl {(2S)-1-[(2S,5S)-2-(5-{2-[(2S,4S)-1-{(2S)-2-[(methoxycarbonyl)amino]-3-methylbutanoyl}-4-methylpyrrolidin-2-yl]-1,11-dihydroisochromeno[4′,3′:6,7]naphtho[1,2-d]imidazol-9-yl}-1H-imidazol-2-yl)-4-methylpyrrolidin-1-yl]-3-methyl-1-oxobutan-2-yl}carbamate [Example ND]”, the EC50 is less than 1 nM in assay [1] (EC50 range class); 0.014 nM in assay [1]; 0.024 nM in assay [2] (read-out: 1b); less than 1 nM in assay [3] (setting [7]); 1.32 nM in assay [3] (setting [8]); 0.27 nM in assay [3] (setting [9]). The EC50 in assay [4] (setting [10]) is less than 1 nM; in assay [4] (setting [11]) it was 0.044 nM; in assay [4] (setting [14]), 0.031 nM; in assay [5] (setting [12]), less than 1 nM; in assay [5] (setting [15]), 2.34 nM; in assay [5] (setting [13]), 0.314 nM. Besides, the EC50 in assay [6] (EC50 range class) is less than 1 nM; in assay [6], 0.035 nM; in the assay on Q30R in genotype 1a NS5A (EC50 range class) it was less than 1 nM; with Q30R in genotype 1a NS5A, 0.057 nM.
Regarding `COC[C@H]1C[C@@H](c2nc3c([nH]2)-c2cc4c(cc2CC3)-c2ccc(-c3cnc([C@@H]5CCCN5C(=O)[C@@H](NC(=O)OC)C(C)C)[nH]3)cc2CO4)N(C(=O)[C@H](NC(=O)OC)c2ccccc2)C1` [Example MR, methyl{(1R)-2-[(2S,4S)-2-(9-{2-[(2S)-1-{(2S)-2-[(methoxycarbonyl)amino]-3-methylbutanoyl}pyrrolidin-2-yl)-1H-imidazol-5-yl]-1,11-dihydroisochromeno[4′,3′:6,7]-4,5-dihydro-naphtho[1,2-d]imidazol-2-yl}-(methoxymethyl)pyrrolidin-1-yl]-2-oxo-1-phenylethyl}carbamate], the EC50 in assay [1] (EC50 range class) is less than 1 nM; in assay [1], 0.017 nM; in assay [2] (read-out: 1b), 0.041 nM; in assay [3] (setting [7]), less than 1 nM; in assay [3] (setting [8]), 0.053 nM; in assay [3] (setting [9]) it was 0.039 nM. Also, the EC50 in assay [4] (setting [10]) is less than 1 nM; in assay [4] (setting [14]), 0.045 nM; in assay [5] (setting [12]) it was less than 1 nM; in assay [5] (setting [15]), 0.176 nM; in assay [5] (setting [13]), 0.079 nM; in assay [6] (EC50 range class), less than 1 nM. Besides, the EC50 was 0.078 nM in assay [6], less than 1 nM with Q30R in genotype 1a NS5A (EC50 range class) and 0.128 nM with Q30R in genotype 1a NS5A.
For the compound `COC[C@H]1C[C@@H](c2nc3ccc4cc5c(cc4c3[nH]2)OCc2cc(-c3cnc([C@@H]4C[C@H](C)CN4C(=O)[C@H](NC(=O)OC)c4ccccc4)[nH]3)ccc2-5)N(C(=O)[C@@H](NC(=O)OC)C(C)C)C1` [Example PF, methyl {1-[2-{9-[2-(1-{[(methoxycarbonyl)amino](phenyl)acetyl}-4-methylpyrrolidin-2-yl)-1H-imidazol-5-yl]-1,11-dihydroisochromeno[4′,3′:6,7]naphtho[1,2-d]imidazol-2-yl}-4-(methoxymethyl)pyrrolidin-1-yl]-3-methyl-1-oxobutan-2-yl}carbamate], in assay [2] (setting [16]), the EC50 came to 0.044 nM.
On to `COC[C@H]1C[C@@H](c2nc3ccc4cc5c(cc4c3[nH]2)OCc2cc(-c3ccc4nc([C@@H]6CCCN6C(=O)[C@@H](NC(=O)OC)C(C)C)[nH]c4c3)ccc2-5)N(C(=O)[C@H](NC(=O)OC)c2ccccc2)C1` [Example MS], for which the EC50 is less than 1 nM in assay [1] (EC50 range class); 0.005 nM in assay [1]; 0.008 nM in assay [2] (read-out: 1b); greater than 5 nM in assay [3] (setting [7]); 9.56 nM in assay [3] (setting [8]); less than 1 nM in assay [4] (setting [10]). Besides, the EC50 is 0.02 nM in assay [4] (setting [11]), 0.014 nM in assay [4] (setting [14]), greater than 5 nM in assay [5] (setting [12]) and 15.6 nM in assay [5] (setting [15]).
Turning to `COC(=O)N[C@H](C(=O)N1CCC[C@H]1c1ncc(-c2ccc3c(c2)COc2cc4c(cc2-3)CCc2[nH]c([C@@H]3CCCN3C(=O)[C@@H](NC(=O)OC)C(C)C)nc2-4)[nH]1)C(C)C` [Example ME], the EC50 in assay [1] (EC50 range class) is less than 1 nM; in assay [1] it was 0.012 nM; in assay [2] (read-out: 1b), 0.049 nM; in assay [3] (setting [7]), less than 1 nM; in assay [3] (setting [8]), 0.701 nM; in assay [3] (setting [9]), 0.198 nM. Further, the EC50 in assay [4] (setting [10]) was less than 1 nM; in assay [4] (setting [11]), 0.029 nM; in assay [4] (setting [14]), 0.016 nM; in assay [5] (setting [12]), 1 to 4.99 nM; in assay [5] (setting [15]) it was 16.1 nM; in assay [5] (setting [13]), 3.43 nM. Further, the EC50 in assay [6] (EC50 range class) was less than 1 nM; in assay [6], 0.015 nM; in the assay with Q30R in genotype 1a NS5A (EC50 range class), 1 to 44 nM; in the assay with Q30R in genotype 1a NS5A, 2.51 nM.
Turning to `COC(=O)N[C@H](C(=O)N1CCC[C@H]1c1ncc(-c2ccc3c(c2)COc2cc4c(ccc5nc([C@@H]6C[C@H](C)CN6C(=O)[C@H](NC(=O)OC)c6ccccc6)[nH]c54)cc2-3)[nH]1)C(C)C` [Example MY, Methyl {2-[2-{9-[2-(1-{2-[(methoxycarbonyl)amino]-3-methylbutanoyl}pyrrolidin-2-yl)-1H-imidazol-5-yl]-1,11-dihydroisochromeno[4′,3′:6,7]naphtho[1,2-d]imidazol-2-yl}-4-(methyl)pyrrolidin-1-yl]-2-oxo-1-phenylethyl}carbamate], in assay [2] (setting [16]), the EC50 is 0.015 nM.
